Here are results for 13 compounds from PMC5562790 (Scientific Reports, 2017).

The subject of data set [1] is planktonic S. aureus (isolates from skin of patients with AD and ATCC 29213). The data set is classed as cell-based, Staphylococcus aureus. The note with it: summary over the tested S. aureus strains. How it is done: Measurement of the bacterial susceptibility was determined by using a modified version of the CBD method (MBEC^TM Biofilm Inoculator, Innovotech, Edmonton, Canada)[59] following the manufacturers protocol. Briefly, to establish biofilms in vitro using the CBD, 150 μl bacterial solution of 10^5 CFU/ml in 1.5% tryptic soy broth (TSB) was supplemented with 0.3% glucose and aliquoted into each well of the MBEC plate and thereafter incubated for 24 h in a rotary incubator at 37 °C and 180 rpm. This allowed the biofilm to form on the pegs. The pegs with established biofilms were then washed once in sterile PBS (200 μl/well). […]
The MIC values measured using the CBD are equivalent to MIC values obtained using the National Committee for Clinical Laboratory Standards (NCCLS) procedure. The MIC value, representing the concentration required to inhibit growth of planktonic bacteria, was determined from bacteria that were shed from the pegs when the lid of the CBD was placed in different concentrations of LL-37. […] MBECs were determined by analyzing the bacterial viability in the biofilm after 24 h of incubation at 37 °C either by reading the turbidity at 600 nm in a 96-well plate reader (Victor[3] 1420 multilabel counter, Perkin-Elmer) or by obtaining bacterial plate counts. The recorded MIC and MBEC values represent a typical result of three independent experiments.

Data set [2] has as its target T1, S. aureus staphopain B (SspB) (Staphylococcus aureus, UniProt P0C1S6).
T1 construct: purchased Sigma-Aldrich
T1 sequence (P0C1S6 220-393): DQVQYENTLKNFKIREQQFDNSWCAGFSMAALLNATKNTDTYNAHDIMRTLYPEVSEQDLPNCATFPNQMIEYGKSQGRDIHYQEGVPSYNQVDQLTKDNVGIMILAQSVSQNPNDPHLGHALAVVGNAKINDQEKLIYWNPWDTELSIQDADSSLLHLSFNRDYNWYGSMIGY
Nature of the data set: Proteolytic degradation of LL-37 by staphopain B, SDS-PAGE and MS. The data set is classed as in vitro ADME. The note with it: LL-37 3 μg with staphopain B 0.6 μg in 30 μl, 3 h, 37 °C; SDS-PAGE (10-20% Tricine gel), MALDI-MS. How it is done: (§1) Proteolytic degradation of LL-37 and SDS-PAGE analysis (See Supplementary Methods S1).
(§2) Matrix-assisted laser desorption ionization mass spectrometry (MALDI-MS) was used for the identification of trypsin generated peptides of LL-37. A MALDI matrix solution consisting of 5 mg/ml hydroxycinnamic acid in 50% acetonitrile, 0.1% (v/v) phosphoric acid[67] was mixed with the staphopain-generated peptides. The matrix solution contained two peptide standards [des-arg-bradykinin (m/z 904.468) and ACTH 18–39 (m/z 2465.199)] that were used for internal mass calibration in every analyte/matrix position. […]
LL-37 (3 µg), was incubated with S. aureus staphopain B (0.6 µg) (Sigma-Aldrich, St. Louis, MO, USA) in a total volume of 30 µl for 3 h at 37 ° C. […] The materials were subsequently analysed on Novex®10-20% Tricine Gel (Life technologies, Carlsbad, CA, USA) under reducing conditions. […]
The NF-κB/AP-1 reporter cell line THP1-XBlue™ -CD14, derived from the human monocytic THP-1 cell line, (InvivoGen, San Diego, CA, USA) was cultured according to the manufacturer’s protocol. […] NF-κB/AP-1 activation was assessed by using QUANTI-Blue™ assay according to the instructions supplied by the manufacturer. Secreted embryonic alkaline phosphatase (SEAP) was produced by the cell line upon stimulation and assessed by a SEAP detection reagent in cell supernatants. Absorbance at 600 nm was then detected. […]

The target of data set [3] is T2, S. aureus staphopain A (ScpA) (Staphylococcus aureus, UniProt P81297).
T2 construct: purchased Preparatis (Krakow, Poland)
T2 sequence (P81297 215-388): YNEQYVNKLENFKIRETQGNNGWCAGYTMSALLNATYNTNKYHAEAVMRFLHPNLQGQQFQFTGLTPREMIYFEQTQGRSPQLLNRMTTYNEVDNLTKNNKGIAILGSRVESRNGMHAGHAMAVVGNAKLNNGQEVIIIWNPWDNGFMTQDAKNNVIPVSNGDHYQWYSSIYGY
The class given is in vitro ADME. The note with it: gel-electrophoresis (10-20% Tricine gel); MS detected cleavage of minor fragments. How it is done:
as §1
as §2, with “position. MALDI-MS and MS/MS analyses of the samples were performed on a 4700 Proteomics Analyzer MALDI-TOF/TOF™ mass spectrometer (Applied Biosystems, Framingham, MA). Database searching was carried out using Mascot (Matrix Science) with Swissprot as the database and with a peptide mass tolerance of 50 ppm and a fragment mass tolerance of 0.2 Da.” for “position.”
labeled LL-37) and green (S. aureus cells) seen separately, and yellow representing co-existence of bacterial cells and the TAMRA-labeled LL-37 peptide. Binding of TAMRA labeled LL-37 to the S. aureus cells were present throughout the biofilm. […]
Supplementary Fig. S5. […] LL-37 was incubated with and without S. aureus ScpA and analyzed using SDS-PAGE (Novex®10-20% Tricine Gel) (a), and by mass spectrometry (b). […]

The conditions of data set [4]: published peptide, cited from earlier work. The text has this:
Table 2 A selection of published peptide sequences derived from LL-37 with immune-modulating actions, and examples of their biological effects. | column: Biological activity

The subject of data set [5] is staphopain B (SspB). Nature of the data set: S. aureus staphopain B (0.6 µg) (Sigma-Aldrich) in a total volume of 30 µl. The conditions noted are these: 37 °C, up to 3 h.

Entries after “also recorded” stand apart in the source; their conditions may differ. Like-named read-outs stand apart in the source and are kept apart here.

As to `CC[C@H](C)[C@H](NC(=O)[C@H](CCCCN)NC(=O)[C@H](CCC(=O)O)NC(=O)[C@H](CCCCN)NC(=O)[C@H](CO)NC(=O)[C@H](CCCCN)NC(=O)[C@H](CCCNC(=N)N)NC(=O)[C@H](Cc1ccccc1)NC(=O)[C@H](Cc1ccccc1)NC(=O)[C@H](CC(=O)O)NC(=O)CNC(=O)[C@H](CC(C)C)NC(=O)[C@@H](N)CC(C)C)C(=O)NCC(=O)N[C@@H](CCCCN)C(=O)N[C@@H](CCC(=O)O)C(=O)N[C@@H](Cc1ccccc1)C(=O)N[C@@H](CCCCN)C(=O)N[C@@H](CCCNC(=N)N)C(=O)N[C@H](C(=O)N[C@H](C(=O)N[C@@H](CCC(N)=O)C(=O)N[C@@H](CCCNC(=N)N)C(=O)N[C@H](C(=O)N[C@@H](CCCCN)C(=O)N[C@@H](CC(=O)O)C(=O)N[C@@H](Cc1ccccc1)C(=O)N[C@@H](CC(C)C)C(=O)N[C@@H](CCCNC(=N)N)C(=O)N[C@@H](CC(N)=O)C(=O)N[C@@H](CC(C)C)C(=O)N[C@H](C(=O)N1CCC[C@H]1C(=O)N[C@@H](CCCNC(=N)N)C(=O)N[C@H](C(=O)N[C@@H](CCC(=O)O)C(=O)N[C@@H](CO)C(=O)O)[C@@H](C)O)C(C)C)[C@@H](C)CC)C(C)C)[C@@H](C)CC` [LL-37], the “MIC values obtained for planktonic cells” value in data set [1] lay within 10 to 20 µM. Moreover, the “degradation by SspB” value in data set [2] was “degraded into fragments of lower molecular weight”. Further, the “degradation by ScpA” value in data set [3] is “did not reveal any obvious major cleavage”.

Take “GDFFRKSK EKIGKEFKRI VQRIKDFLRN LVPRTES [F106, published fragment (F) derived from LL-37]”: the Biological activity entry in data set [4] (ref [29]) is recorded as “AM, IM^2”.

On to “GKEFKRI VQRIKDFLRN LVPR (GKEFKRIVQRIKDFLRNLVPR)”, for which the Biological activity result in data set [4] (ref [24]) is “AM, IM^1c,2”.

Consider IGKEFKRI VQRIKDFLRN L [IG-19], for which, in data set [4] (ref [27], [28]), the Biological activity result is listed as “IM^1b,2,5”.

With IGKEFKRI VQRIKDFLRN LVPRTES [IG-25], the Biological activity result in data set [4] (ref [27]) is given as “IM^1b,3”.

Regarding “KSK EKIGKEFKRI VQRIKDFLRN LVPRTES [KS-30]”, the Biological activity result in data set [4] (ref [23], [25], [26]) was “AM, IM^3,4”.

As to LLGDFFRKSKEKIGKEFKRIV, in data set [4] (ref [24]), the Biological activity entry is given as “AM, IM^2”.

Take LLGDFFRKSKEKIGKEFKRIVQRIK [LL-25]: the Biological activity result in data set [4] (ref [27]) was “IM^1b”.

As for “LLGDFFRKSKEKIGKEFKRIVQRIKDFLRNL [LL-31]”, in data set [4] (ref [27]), the Biological activity result is on record as “IM^1b,3”.

Regarding LLGDFFRKSKEKIGKEFKRIVQRIKDFLRNLVPRTES, in data set [5] (S. aureus), the cleaved bond result is listed as “E11-K12; also recorded: E16-F17; also recorded: D26-F27; also recorded: L28-R29”. Moreover, in data set [5] (Staphylococcus aureus), the fragment found result is on record as “LLG16, minor”.

Turning to RKSK EKIGKEFKRI VQRIKDFLRN L [RK-25], the Biological activity result in data set [4] (ref [27]) is recorded as “IM^1b,3”.

In the case of “RKSK EKIGKEFKRI VQRIKDFLRN LVPRTES [F110, published fragment (F) derived from LL-37]”, the Biological activity entry in data set [4] (ref [29]) is on record as “AM, IM^1c,2”.

As to “RKSK EKIGKEFKRI VQRIKDFLRN LVPRTES [RK-31]”, the Biological activity entry in data set [4] (ref [23], [25]) is recorded as “AM, IM^3”.
